How the values were obtained:
secreted APP = assay: ELISA for secreted APP in SHSY5Y cells; format: cell-based, human; conditions: 16 hours
Description: (§1) An enzyme-linked immunosorbent assay was developed to detect secreted APP in SHSY5Y cells, a human neuroblastoma cell line. The purpose of the screen was to discover small molecules that inhibit APP protein synthesis in SHSY5Y cells. SHSY5Y cells were plated at 1×10^5 cells/well in […] of DMEM containing 0.5% heat inactivated FBS in 96 well tissue culture treated plates (Falcon no. 35 3072). 144 MES compounds were tested at final concentrations of […] in 0.1% DMSO. Compounds were added and the plates incubated for 16 hours at 37° C./5% CO2. Maxisorp plates (Nunc no. 437958) were coated overnight with […] capture antibody (Biosource 44-100) diluted in Ca^++ and Mg^++ free PBS. Biosource 44-100 is a mouse mAb that recognizes aa 1-100 of human APP. Plates were blocked for 30 minutes with 1 mg/mL BSA in Ca^++ and Mg^++ free PBS. Plates were washed 3× with wash buffer (Ca^++ and Mg^++ free PBS+0.01% Tween20). […] of supernatants and non-cultured medium controls were transferred from culture plates to ELISA plates. Culture plates were reserved for toxicity analysis. Supernatants were incubated for 4 hours at RT on a plate shaker. After supernatant incubation, plates were washed 3×. Primary antibody (Signet Clone 6E-10 biotin) was added at 0.3125 mg/mL and incubated overnight at 4° C. The recognition site of 6E-10 is aa 1-17 of Ab. For detection, a 1:3000 dilution of horseradish peroxidase conjugated streptavidin (Endogen no. N-100) was incubated for 30 minutes. Plates were washed 3×. Enzyme activity was assessed by incubation with […] TMB substrate solution (Moss no. TMB-US) for 20 minutes. The reaction was stopped by the addition of […] 0.18M sulfuric acid. Optical density was read at 450 nm on Wallac Victor2 plate reader. During the first incubation, toxicity was determined using MTS assay, Cell Titer96 AQ reagent (Promega no. G5430). The background values from the non-cultured medium control were subtracted from the sample values and secreted APP levels and toxicity were expressed as % vehicle control. Of the 144 MES compounds screened, 12 inhibited secreted APP as determined by ELISA. The results are depicted in FIGS. 13A-M.
(§2) Using the experimental procedure outlined above, APP secretion and toxicity studies were performed on several other non-carbamate compounds, and the results are shown in Tables 3 and 4. The compound structures are provided in Table 2 in the application, which are identified by their MES number.

SH-SY-5Y Cells = assay: MTS toxicity assay in SHSY5Y cells; format: cell-based, human
Description: as §1, §2

| SMILES | APP Secretion by SH-SY-5Y Cells (secreted APP; Dose 0.08 uM) | APP Secretion by SH-SY-5Y Cells (secreted APP; Dose 0.25 uM) | APP Secretion by SH-SY-5Y Cells (secreted APP; Dose 0.74 uM) | APP Secretion by SH-SY-5Y Cells (secreted APP; Dose 2 uM) | APP Secretion by SH-SY-5Y Cells (secreted APP; Dose 6 uM) | APP Secretion by SH-SY-5Y Cells (secreted APP; Dose 20 uM) | APP Toxicity SH-SY-5Y Cells (MTS assay) (SH-SY-5Y Cells; Dose 0.08 uM) | APP Toxicity SH-SY-5Y Cells (MTS assay) (SH-SY-5Y Cells; Dose 0.25 uM) | APP Toxicity SH-SY-5Y Cells (MTS assay) (SH-SY-5Y Cells; Dose 0.74 uM) | APP Toxicity SH-SY-5Y Cells (MTS assay) (SH-SY-5Y Cells; Dose 2 uM) | APP Toxicity SH-SY-5Y Cells (MTS assay) (SH-SY-5Y Cells; Dose 6 uM) | APP Toxicity SH-SY-5Y Cells (MTS assay) (SH-SY-5Y Cells; Dose 20 uM) | APP Secretion by SH-SY-5Y Cells (secreted APP; Dose 2 uM, listed as 9294) | APP Secretion by SH-SY-5Y Cells (secreted APP; Dose 6 uM, listed as 9294) | APP Secretion by SH-SY-5Y Cells (secreted APP; Dose 20 uM, listed as 9294) | APP Toxicity SH-SY-5Y Cells (MTS assay) (SH-SY-5Y Cells; Dose 2 uM, listed as 9294) | APP Toxicity SH-SY-5Y Cells (MTS assay) (SH-SY-5Y Cells; Dose 6 uM, listed as 9294) | APP Toxicity SH-SY-5Y Cells (MTS assay) (SH-SY-5Y Cells; Dose 20 uM, listed as 9294) |
| --- | --- | --- | --- | --- | --- | --- | --- | --- | --- | --- | --- | --- | --- | --- | --- | --- | --- | --- |
| CC(Br)C(=O)N(C)c1ccc(O)cc1 (stereo not drawn) [MES 9291, Propionanilde] | 98.2 % vehicle control | 99.5 % vehicle control | 99.7 % vehicle control | 100.1 % vehicle control | 96.9 % vehicle control | 67.8 % vehicle control | 99.1 % vehicle control | 100.5 % vehicle control | 97.1 % vehicle control | 102.4 % vehicle control | 99.87 % vehicle control | 99 % vehicle control | – | – | – | – | – | – |
| CC1C(=O)N(C)c2ccc(O)cc21 (stereo not drawn) [MES 9292, 1,3-Dimethyl-5-hydroxyoxindole] | – | – | – | 106.15 % vehicle control | 99.55 % vehicle control | 100.15 % vehicle control | – | – | – | 102.85 % vehicle control | 103.75 % vehicle control | 104.9 % vehicle control | – | – | – | – | – | – |
| COc1ccc2c(c1)C(C)C(=O)N2C (stereo not drawn) [MES 9293] | – | – | – | 97.8 % vehicle control | 102.75 % vehicle control | 94.45 % vehicle control | – | – | – | 100.8 % vehicle control | 99.85 % vehicle control | 101.95 % vehicle control | – | – | – | – | – | – |
| COc1ccc2c(c1)[C@@]1(C)CCNC1N2C (stereo partly drawn) [MES 9294] | – | – | – | – | – | – | – | – | – | – | – | – | 105.25 % vehicle control | 90 % vehicle control | 111 % vehicle control | 99.9 % vehicle control | 98.3 % vehicle control | 100.2 % vehicle control |
| COc1ccc2c(c1)C1(C)CCSC1N2C (stereo not drawn) [MES 9301] | – | – | – | 108.45 % vehicle control | 106.1 % vehicle control | 111.15 % vehicle control | – | – | – | 99.15 % vehicle control | 97.35 % vehicle control | 95.9 % vehicle control | – | – | – | – | – | – |
| COc1ccc2c(c1)[C@]1(C)CCSC1N2C (stereo partly drawn) [MES 9302] | – | – | – | 100.35 % vehicle control | 105.4 % vehicle control | 105.8 % vehicle control | – | – | – | 100.7 % vehicle control | 101.2 % vehicle control | 99.05 % vehicle control | – | – | – | – | – | – |
| COc1ccc2c(c1)C1(c3ccccc3)CCNC1N2C (stereo not drawn) [MES 9305] | – | – | – | 106.2 % vehicle control | 102.4 % vehicle control | 102.2 % vehicle control | – | – | – | 95.8 % vehicle control | 96.73 % vehicle control | 94.83 % vehicle control | – | – | – | – | – | – |
| CC(Br)C(=O)N(Cc1ccccc1)c1ccc(O)cc1 (stereo not drawn) [MES 9306] | – | – | – | 110.75 % vehicle control | 114.55 % vehicle control | 124.8 % vehicle control | – | – | – | 102.3 % vehicle control | 101.45 % vehicle control | 106 % vehicle control | – | – | – | – | – | – |

Reference: US8691864B2, “Agents useful for reducing amyloid precursor protein and treating dementia and methods of use thereof” (priority 2000, dated 2014)
